Results: paper PMC3522777 (Nature chemical biology, 2012)

Key:
[1] = molecular target: T1, dihydroceramide desaturase-1 (DES1) (Gallus gallus, UniProt Q5F3C1); assay type: biochemical
T1 sequence (Q5F3C1 1-323): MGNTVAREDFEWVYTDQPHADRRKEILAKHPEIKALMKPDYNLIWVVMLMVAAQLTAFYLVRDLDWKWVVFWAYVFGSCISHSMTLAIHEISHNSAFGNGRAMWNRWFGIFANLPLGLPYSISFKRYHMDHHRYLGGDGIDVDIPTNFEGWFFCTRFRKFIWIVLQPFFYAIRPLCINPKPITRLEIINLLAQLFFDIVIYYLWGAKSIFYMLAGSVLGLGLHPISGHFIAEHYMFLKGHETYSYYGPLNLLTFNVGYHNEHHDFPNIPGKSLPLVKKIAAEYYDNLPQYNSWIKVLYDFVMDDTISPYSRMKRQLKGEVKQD

[2] = molecular target: T1, dihydroceramide desaturase-1 (DES1); experiment: retinol isomerase assay with purified GST-DES1, HPLC of products; assay type: biochemical
[3] = molecular target: DES1 (Homo sapiens, UniProt O15121); experiment: retinol isomerase assay in homogenates of transfected […] cells, HPLC; assay type: cell-based
Chain of DES1 (O15121 2-323): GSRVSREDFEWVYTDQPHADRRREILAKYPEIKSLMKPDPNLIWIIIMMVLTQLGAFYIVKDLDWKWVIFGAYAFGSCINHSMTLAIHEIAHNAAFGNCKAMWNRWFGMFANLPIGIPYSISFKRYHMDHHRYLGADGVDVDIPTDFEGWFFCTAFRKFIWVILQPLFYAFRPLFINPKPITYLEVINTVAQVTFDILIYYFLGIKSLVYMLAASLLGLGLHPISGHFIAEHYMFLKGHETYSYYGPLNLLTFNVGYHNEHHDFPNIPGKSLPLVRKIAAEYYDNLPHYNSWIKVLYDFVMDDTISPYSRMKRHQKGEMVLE

Ki [1] [µM] | Compound | retinol isomerase assay with purified GST-DES1, HPLC of products [2] | retinol isomerase assay in homogenates of transfected 293T cells, HPLC [3]
8.5 | CC1=C(/C=C/C(C)=C/C=C/C(C)=C/C(=O)Nc2ccc(O)cc2)C(C)(C)CCC1 [4-HPR, fenretinide] | – | –
– | CC1=C(/C=C/C(C)=C/C=C/C(C)=C/CO)C(C)(C)CCC1 [all-trans-ROL, all-trans-retinol] | Purified GST-DES1 exhibited dramatically higher isomerase-2 activities | The rate of 11-cis-ROL synthesis was dramatically higher for DES1 versus the other membrane desaturases
